# pIC50, pKd: −log10 of the molar value. Where “and” joins values, the source holds several entries; their conditions need not be identical. Equal values may be shown once. Read-outs that look alike come from different tables or passages of the source. Non-standard residues stand in square brackets, D forms with d. Residues, ends and D or L forms follow the SMILES beside them. No end group written: not given here. Ac6c = NC1(C(=O)O)CCCCC1; Dap = NC[C@H](N)C(=O)O
# Key:
# M. luteus = assay: Growth inhibition assay, M. luteus; format: cell-based, Micrococcus luteus; conditions: Luria-Bertani rich nutrient medium
# Description: Growth inhibition assays are performed using the candidate antibacterial compounds and the Gram positive microorganisms Micrococcus luteus and Bacillus megaterium, and the Gram negative microorganisms, Escherichia coli D22, Agrobacterium tumefaciens, and Salmonella typhimurium. Antibacterial assays are performed in sterilized 96-well plates (Nunc F96 microtiter plates) with a final volume of 100 μl as described in Bulet (1996), cited above. Briefly, 90 μl of a suspension of a midlogarithmic phase bacterial culture at an initial 600 nm UV absorbance of 0.001 in Luria-Bertani rich nutrient medium is added to 10 μl of serially diluted candidate compounds in sterilized water. The final compound concentrations range between 0.15 and 80 μM, and more preferably between 0.3 μM and 40 μM. The plates are incubated at 30° C. for 24 hours with gentle shaking, and the growth inhibition is measured by recording the increase of the UV absorbance at 600 nm on an SLT Labinstruments 400 ATC microplate reader. The experiments are conducted over a 7-month period.
# The inhibitory concentrations (IC50) of each candidate compound is determined against each above-indicated microorganism.
# As one example, this in vitro antibacterial assay was performed on a broad spectrum divalent pyrrhocoricin analog, Chex-Pyrrhocoricin-2-19-Dap-[Chex-Pyrrhocoricin-2-19-Dap(Ac)], and the results illustrated in Table 4.
# E. coli DnaK aa583-615 = E. coli DnaK aa583-615 (Escherichia coli, UniProt P0A6Y8); assay: Circular dichroism of peptide - E. coli DnaK fragment mixtures; format: binding; conditions: DnaK spectrum subtracted from mixture
# Source text: CD spectra are taken in water, and water-trifluoroethanol (TFE) mixtures to determine whether the characteristic unordered or turn→α-helix conformational transition, frequently observed for peptide fragments of helical domains of proteins, occurs at identical TFE concentrations. In pure water, the CD spectra of the E. coli and S. aureus DnaK fragments could be assigned as a type C spectrum, and reflect the dominance of type I (III) β-turns, or a mixture of type I and type II turns. […] This is an unmistakable indication of the appearance of helical structures, most likely 310-helices. The two DnaK fragments behaved identically, at least in spectral terms. While the spectral features of well-developed α-helices could already be seen at a TFE concentration as low as 10%, the intensity was increased with increasing TFE content. In 100% TFE a fully α-helical spectrum was recorded.
# To estimate the bound conformation of the antibacterial peptides, the spectra of drosocin or pyrrhocoricin alone, as well as those of the E. coli and S. aureus DnaK fragments were recorded, followed by the recording of the CD spectra of antibacterial peptide-DnaK fragment mixtures. […]
# recombinant E. coli DnaK = target: T1, recombinant E. coli DnaK (Escherichia coli, UniProt P0A6Y8); assay: EnzChek ATPase assay, recombinant DnaK; format: biochemical; conditions: 50 molar equivalents of peptide; 22° C., 30 min; UV absorbance at 360 nm
# T1 construct: purchased StressGen, Victoria, Canada
# Source text: To determine whether the proline-rich antibacterial peptides that were predicted to bind to DnaK between the peptide binding pocket and the C-terminus would interfere with ATPase activity, a recently developed continuous spectrophotometric (colorimetric) ATPase activity assay [Rieger, C. E. et al, (1997) Anal. Biochem. 246: 86-95] was used. This assay uses using 2-amino-6-mercapto-7-methylpurine ribonucleoside (MESG)/purine nucleoside phosphorylase reaction to detect the released inorganic phosphate (EnzChek ATPase determination kit from Molecular Probes, Eugene, USA). Assays were performed in 500 μL tubes in duplicates in a total volume of 125 μL containing 20 mM tris(hydroxymethyl)amino-ethane (Tris)-HCl, pH 7.6, 1 mM MgCl2, […] (except in assaying the baseline), 5 μg of DnaK (recombinant DnaK protein from StressGen,Victoria, Canada) and 50 molar equivalents of the particular peptide, MESG and the purine nucleoside phosphorylase recommended by the manufacturer. After incubation at 22° C. for 30 min, 100 μL of the reaction mixture was transferred to a quartz cuvette and the ultraviolet (UV) absorbance at 360 nm was measured. The assay was run in a miniaturized form to increase the concentration and therefore the enzymatic activity of DnaK. In a larger, standard format the ATPase activity of DnaK without peptide addition was 6 pmol/μg/min, in line with the published data of 4 pmol/μg/min [Liberek, K. et al, (1991) Proc. Natl. Acad. Sci. USA 88: 2874-2878].
# [1] = target: E. coli DnaK fragment aa588-615 (Escherichia coli, UniProt P0A6Y8); assay: Fluorescence polarization with synthetic DnaK fragment aa588-615; format: binding
# [2] = tested on: β-galactosidase activities of live E. coli TG-1 cells; format: cell-based; conditions: for Inhibition of enzymatic activity after 1 hour (%) β-Galactosidase: peptide 32 μg/mL, live E. coli TG-1, three independent assays
# [3] = within a four-hour period; Hoffmann et al, 1999; cited from earlier work
# [4] = within a four-hour period; Hoffmann et al, 1999; cited from earlier work; remark: listed apart in the source
# [5] = tested on: alkaline phosphatase activities of live E. coli TG-1 cells; format: cell-based; conditions: peptide 32 μg/mL; live E. coli TG-1; four independent assays
# [6] = target: S. aureus aa554-585 DnaK fragment (Staphylococcus aureus, UniProt P45554); assay: Circular dichroism of peptide - S. aureus DnaK fragment mixtures; format: binding; conditions: wavelength of band maxima
# Description: To estimate the bound conformation of the antibacterial peptides, the spectra of drosocin or pyrrhocoricin alone, as well as those of the E. coli and S. aureus DnaK fragments were recorded, followed by the recording of the CD spectra of antibacterial peptide-DnaK fragment mixtures. Finally the original spectra of the DnaK peptides were subtracted from the spectra of the mixtures, and the residual spectra, representing the conformation of the bound peptides were compared to the spectra of the antibacterial peptides alone. This exercise is justifiable only if the conformation of the protein fragments remain unchanged upon interaction with drosocin or pyrrhocoricin. […] It is expected that the binding will not modify the helix structure of the rigid DnaK fragments, but can influence the conformation of the flexible antibacterial peptides.
# The results of this conformational analysis for pyrrhocoricin—E. coli DnaK interaction are as follows. The CD spectrum of the mixture of the two peptides resembled that of the DnaK fragment alone, except that the intensities were lower, due to the lower intensity of the CD spectrum of pyrrhocoricin.
# To ascertain that this conformational change upon binding was not a spectroscopical artifact, the procedure was repeated with pyrrhocoricin and the DnaK peptide derived from the non-responsive strain S. aureus.
# [7] = tested on: E. coli strain (ATCC 25922); assay: Validated antibacterial assay conditions, E. coli ATCC 25922; format: cell-based
# bacteria = assay: Bacterial killing by labeled and unlabeled pyrrhocoricin; format: cell-based
# Ras = assay: Competition fluorescence polarization against labeled pyrrhocoricin, Ras; format: binding; conditions: 4 μM Ras reading 52±7
# E. coli D22 = conditions: Otvos et al, 2000, Protein Science; cited from earlier work
# GroEL = GroEL (Escherichia coli, UniProt P0A6F5); format: binding, E. coli; parameters: purchased; host or cells: E. coli; conditions: then 1 nM fluorescein-K-pyrrhocoricin, no peptide 70 ± 10
# S. aureus = conditions: Otvos et al, 2000, Biochemistry; cited from earlier work
# [8] = target: E. coli DnaK fragment aa583-615 (D-E helix hinge) (Escherichia coli, UniProt P0A6Y8); assay: Fluorescence polarization with synthetic DnaK fragment aa583-615; format: binding
# Description: The binding of the synthetic DnaK fragments to their fluorescein-labeled pyrrhocoricin counterparts was also assessed in solution, by fluorescence polarization [Lundblad, J. R. et al, (1996) Mol. Endocrinol. 10: 607-612]. For these experiments, the unlabeled peptides were serially diluted in PBS (pH 7.4) or 0.1 M Tris-HCl (pH 8.0) containing 0.1 M ethylene-diamine-tetraacetic acid (EDTA) in 50 μL final volume in 6×50 mm disposable glass borosilicate tubes. The fluoresceinated peptides were added to each tube in a 50 μL aliquot to a final concentration of 1 nM and tubes were incubated at 37° C. for 5 minutes. The extent of fluorescence anisotropy was measured on a Beacon 2000 fluorescence polarization instrument (PanVera, Madison, Wis.) and calculated as millipolarization values. The filters used were 485 nm excitation and 535 nm emission with 3 nm band width. Non-linear curve fitting was done by using a dose-response logistical transition [y=a0+a1/(1+x/a2)^a^3] and the Levenberg-Marquardt Algorithm within the SlideWrite software package. The provided Kd value (a2 coefficient) was calculated by the program.
# To quantitatively characterize the pyrrhocoricin—D-E helix interaction, the complete binding curves were measured for E. coli DnaK fragments aa583-615 and aa588-615, both of SEQ ID NO: 10.
# E. coli infection = conditions: Otvos et al, 2000, cited from earlier work
# Hsp70 = Hsp70 (Homo sapiens, UniProt P0DMV8); assay: EnzChek ATPase assay, recombinant Hsp70; format: biochemical; conditions: human equivalent of DnaK
# DnaK = DnaK (Escherichia coli, UniProt P0A6Y8); format: binding, E. coli; parameters: purchased; host or cells: E. coli
# Sequence of DnaK (P0A6Y8 whole entry): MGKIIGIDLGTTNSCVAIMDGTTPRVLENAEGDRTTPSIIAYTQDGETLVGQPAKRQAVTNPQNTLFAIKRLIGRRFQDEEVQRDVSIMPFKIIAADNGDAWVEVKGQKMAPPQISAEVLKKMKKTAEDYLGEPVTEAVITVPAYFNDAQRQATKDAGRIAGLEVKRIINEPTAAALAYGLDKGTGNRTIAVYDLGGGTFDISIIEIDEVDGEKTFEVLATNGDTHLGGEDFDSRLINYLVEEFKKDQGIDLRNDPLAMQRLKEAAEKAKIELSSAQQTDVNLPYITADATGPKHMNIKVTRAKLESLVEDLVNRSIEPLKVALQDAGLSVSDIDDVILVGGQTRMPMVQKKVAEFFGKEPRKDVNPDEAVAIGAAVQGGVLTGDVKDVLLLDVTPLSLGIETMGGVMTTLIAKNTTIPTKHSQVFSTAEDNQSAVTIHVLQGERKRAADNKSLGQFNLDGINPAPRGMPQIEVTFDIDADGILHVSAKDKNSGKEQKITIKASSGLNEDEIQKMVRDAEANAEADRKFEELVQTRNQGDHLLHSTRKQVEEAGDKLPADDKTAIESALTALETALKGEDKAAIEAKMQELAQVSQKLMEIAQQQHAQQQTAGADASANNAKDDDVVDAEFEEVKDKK
# T1 sequence (P0A6Y8 whole entry): as above
# Sequence of E. coli DnaK aa583-615 (P0A6Y8 584-616 limits assumed): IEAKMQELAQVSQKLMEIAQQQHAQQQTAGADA
# Sequence of GroEL (P0A6F5 2-548 limits assumed): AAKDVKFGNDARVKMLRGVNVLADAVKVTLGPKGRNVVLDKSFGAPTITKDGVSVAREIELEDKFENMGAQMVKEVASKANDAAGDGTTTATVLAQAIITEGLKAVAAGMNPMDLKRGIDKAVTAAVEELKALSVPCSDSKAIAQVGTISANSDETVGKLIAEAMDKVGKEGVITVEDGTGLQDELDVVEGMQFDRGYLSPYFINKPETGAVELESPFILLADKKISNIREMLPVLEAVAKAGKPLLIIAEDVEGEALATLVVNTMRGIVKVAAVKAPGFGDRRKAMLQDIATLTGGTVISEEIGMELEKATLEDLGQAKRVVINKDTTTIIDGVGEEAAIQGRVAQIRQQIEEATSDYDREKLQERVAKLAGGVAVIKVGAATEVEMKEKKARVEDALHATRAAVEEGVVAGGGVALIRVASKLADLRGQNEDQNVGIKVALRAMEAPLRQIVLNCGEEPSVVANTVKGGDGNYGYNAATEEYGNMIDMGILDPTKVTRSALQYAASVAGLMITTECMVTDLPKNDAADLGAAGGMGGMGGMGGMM
# Sequence of E. coli DnaK fragment aa583-615 (D-E helix hinge) (P0A6Y8 584-616): as the sequence (P0A6Y8 584-616 limits assumed) above
# Sequence of E. coli DnaK fragment aa588-615 (P0A6Y8 589-616 limits assumed): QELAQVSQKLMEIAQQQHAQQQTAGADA
# Sequence of Hsp70 (P0DMV8 whole entry): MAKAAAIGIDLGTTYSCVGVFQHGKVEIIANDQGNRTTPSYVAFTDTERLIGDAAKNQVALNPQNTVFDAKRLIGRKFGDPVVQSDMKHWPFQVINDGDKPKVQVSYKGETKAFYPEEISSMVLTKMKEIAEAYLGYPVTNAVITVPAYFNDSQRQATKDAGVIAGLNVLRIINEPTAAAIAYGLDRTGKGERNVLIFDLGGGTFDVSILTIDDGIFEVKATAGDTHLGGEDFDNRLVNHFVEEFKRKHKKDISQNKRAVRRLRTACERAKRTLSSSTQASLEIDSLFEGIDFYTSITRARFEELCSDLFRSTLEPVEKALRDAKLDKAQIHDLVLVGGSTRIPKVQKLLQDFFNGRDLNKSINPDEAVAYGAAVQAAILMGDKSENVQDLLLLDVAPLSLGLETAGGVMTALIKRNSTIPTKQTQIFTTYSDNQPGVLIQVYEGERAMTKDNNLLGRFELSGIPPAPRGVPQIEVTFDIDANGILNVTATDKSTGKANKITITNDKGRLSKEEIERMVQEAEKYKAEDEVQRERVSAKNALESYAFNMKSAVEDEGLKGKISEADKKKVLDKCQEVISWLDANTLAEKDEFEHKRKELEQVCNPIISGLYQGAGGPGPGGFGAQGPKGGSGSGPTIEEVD
# Sequence of S. aureus aa554-585 DnaK fragment (P45554 554-585 limits assumed): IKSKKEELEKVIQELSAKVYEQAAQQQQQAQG
compound,measurement,setting,value
CC[C@H](C)[C@H](NC(=O)[C@@H]1CCCN1C(=O)[C@H](CCCNC(=N)N)NC(=O)[C@@H]1CCCN1C(=O)[C@@H]1CCCN1C(=O)[C@@H](NC(=O)[C@@H]1CCCN1C(=O)[C@H](CCCNC(=N)N)NC(=O)[C@@H]1CCCN1C(=O)[C@H](CC(C)C)NC(=O)[C@H](Cc1ccc(O)cc1)NC(=O)[C@H](CO)NC(=O)CNC(=O)[C@H](CCCCN)NC(=O)[C@H](CC(=O)O)NC(=O)C1(NC(=O)[C@H](CN)NC(=O)[C@H](CCCNC(=N)N)NC(=O)[C@H](CC(N)=O)NC(=O)[C@H](Cc2ccc(O)cc2)NC(=O)[C@@H](NC(=O)[C@@H]2CCCN2C(=O)[C@H](CCCNC(=N)N)NC(=O)[C@@H]2CCCN2C(=O)[C@@H]2CCCN2C(=O)[C@@H](NC(=O)[C@@H]2CCCN2C(=O)[C@H](CCCNC(=N)N)NC(=O)[C@@H]2CCCN2C(=O)[C@H](CC(C)C)NC(=O)[C@H](Cc2ccc(O)cc2)NC(=O)[C@H](CO)NC(=O)CNC(=O)[C@H](CCCCN)NC(=O)[C@H](CC(=O)O)NC(=O)C2(N)CCCCC2)[C@@H](C)O)[C@@H](C)CC)CCCCC1)[C@@H](C)O)C(=O)N[C@@H](Cc1ccc(O)cc1)C(=O)N[C@@H](CC(N)=O)C(=O)N[C@@H](CCCNC(=N)N)C(=O)N[C@@H](CNC(C)=O)C(=O)O [Chex-Pyrrhocoricin-2-19-Dap-[Chex-Pyrrhocoricin-2-19-Dap(Ac)]] (H-[Ac6c]DKGSYLPRPTPPRPIYNR[Dap][Ac6c]DKGSYLPRPTPPRPIYNR[Dap](Ac)-OH; C-terminus assumed),pIC50,M. luteus,4.10 to 4.40
GKPRPYSPRPTSHPRPIRV [Drosocin],CD spectral change of the peptide upon mixing with DnaK fragment,E. coli DnaK aa583-615,did not appear to modify the conformation
same,effect on ATPase activity of recombinant DnaK,recombinant E. coli DnaK,without affecting
same,binding to aa588-615 fragment,[1],considerably weaker than pyrrhocoricin
same,effect on β-galactosidase activity after 6 hours,"[2]; 32 μg/mL, FIG. 2A",detrimental
same,Inhibition of enzymatic activity after 1 hour (%) β-Galactosidase,[2],98 ± 68%
same,degradation in diluted human serum,[3],completely degraded
same,degradation in diluted mouse serum,[4],completely degraded
same,Inhibition of enzymatic activity after 1 hour (%) Alkaline Phosphatase,[5],35 ± 27%
VDKGSYLPRPTPPRPIYNRN [pyrrhocoricin],CD spectral change of the peptide upon mixing with DnaK fragment,E. coli DnaK aa583-615,redshift of both pyrrhocoricin bands
same,effect on ATPase activity of recombinant DnaK,recombinant E. coli DnaK,less than half of the original value
same,CD spectral change of the peptide upon mixing with DnaK fragment,[6],remained unchanged
same,killing of E. coli ATCC 25922,[7],failed to kill
same,concentration range killing bacteria,bacteria,mid-nanomolar concentration range
same,decrease of the Ras readings,Ras; preincubation with 4 μM peptide,16 millipolarization units
same,decrease of the Ras readings,Ras; preincubation with 8 μM peptide,27 millipolarization units
same,killing of E. coli D22,E. coli D22,nanomolar concentrations
same,Inhibition of enzymatic activity after 1 hour (%) β-Galactosidase,[2],153 ± 57%
same,Millipolarization after preincubation with,"GroEL; 4 μM GroEL preincubated with 4 μM unlabeled peptide, corrected with Ras readings",62
same,Millipolarization after preincubation with,GroEL; 4 μM GroEL preincubated with 8 μM unlabeled peptide,62
same,activity against S. aureus in vitro,S. aureus,inactive
same,pKd,[8],4.29
same,toxicity in vivo,"E. coli infection; higher dose for pyrrhocoricin, compromised animals",toxic to compromised animals
same,protection of mice against E. coli infection,E. coli infection; low doses for pyrrhocoricin,protected mice
same,effect on ATPase activity of recombinant Hsp70,Hsp70,did not influence
same,Millipolarization after preincubation with,DnaK,110 and 84
same,Inhibition of enzymatic activity after 1 hour (%) Alkaline Phosphatase,[5],32 ± 16%
